# Experimental data from the supplement of paper PMC7017272.
# ± gives the standard deviation of the averaged measurements.
# Tests used:
# Conditions in all cases: treatment time: 3 days
# UT-SCC-24A [1] = test: drug sensitivity score (DSS); higher = more sensitive
# Procedure: (§1)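 HNSCC cell lines (500 cells/well, 384-well) were cultured on plastic, on top of (2D) or embedded (3D) in Matrigel or human leiomyoma matrix Myogel (500 ug/mL; Myogel 3D mixed with rat collagen I). Cells were treated for 3 days with 5 ten-fold concentrations of each drug, and viability was read by CellTiter-Glo. Suffixes _1/_2/_3 on drug names are replicates.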
# UT-SCC-106A [2] = test: maximal % inhibition of viability relative to DMSO; higher = stronger effect
# Procedure, shortened: (§2)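 HPV-negative HNSCC cell lines were seeded at 500 cells/well in 384-well plates on plastic, on Matrigel- or Myogel-coated wells (500 µg/mL), or embedded in Matrigel or Myogel plus rat collagen I. Compounds were given at five 10-fold concentrations for 3 days, and viability was read by CellTiter-Glo 2.0 luminescence. Signals were normalised to vehicle (0.1% DMSO) and cell-killing control wells. Percent-inhibition dose–response curves were fitted in the FIMM pipeline to derive IC50, maximal inhibition and drug sensitivity score.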
# UT-SCC-44 = test: as above
# Procedure, shortened: as §2
# UT-SCC-73 = test: as above
# Procedure, shortened: as §2
# UT-SCC-24A [3] = test: maximal % inhibition of viability relative to DMSO; higher = stronger effect
# Procedure: as §1, with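 “CellTiter-Glo. Viability was normalised to DMSO (0% inhibition) and 100 uM benzethonium chloride (100% inhibition) controls and fitted with the FIMM DSRT pipeline to give IC50 (nM), maximal % inhibition and the drug sensitivity score (DSS).” for “CellTiter-Glo.”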
# UT-SCC-106A [4] = test: drug sensitivity score (DSS); higher = more sensitive; extreme values may be limits of the assay
# Procedure, shortened: as §2
# UT-SCC-14 = test: as above
# Procedure, shortened: as §2
# UT-SCC-24B = test: as above
# Procedure, shortened: as §2
# [5] = culture condition: embedded in Matrigel
# [6] = culture condition: embedded in Myogel + collagen I
# [7] = culture condition: on top of Matrigel
# [8] = culture condition: on top of Myogel
# [9] = culture condition: plastic 2D (no matrix)
smiles,measurement,setting,value
Cn1cnc2c(F)c(Nc3ccc(Br)cc3F)c(C(=O)NOCCO)cc21 [Binimetinib],drug sensitivity score,UT-SCC-24A [1]; [5],24.4 ± 3.8 DSS
same,drug sensitivity score,UT-SCC-24A [1]; [6],9.83 ± 4.3 DSS
same,drug sensitivity score,UT-SCC-24A [1]; [7],19.9 ± 0.72 DSS
same,drug sensitivity score,UT-SCC-24A [1]; [8],6.9 ± 0.85 DSS
same,drug sensitivity score,UT-SCC-24A [1]; [9],18.1 ± 0.64 DSS
same,maximal % inhibition of viability,UT-SCC-106A [2]; [5],48.3 ± 3.9%
same,maximal % inhibition of viability,UT-SCC-106A [2]; [6],16.4 ± 2.9%
same,maximal % inhibition of viability,UT-SCC-106A [2]; [7],60.1 ± 2.9%
same,maximal % inhibition of viability,UT-SCC-106A [2]; [8],20.6 ± 2.3%
same,maximal % inhibition of viability,UT-SCC-106A [2]; [9],62.2 ± 1.8%
same,maximal % inhibition of viability,UT-SCC-44; [5],70.1 ± 4.2%
same,maximal % inhibition of viability,UT-SCC-44; [6],31.5 ± 8.1%
same,maximal % inhibition of viability,UT-SCC-44; [7],52.9 ± 11%
same,maximal % inhibition of viability,UT-SCC-44; [8],34 ± 5.1%
same,maximal % inhibition of viability,UT-SCC-44; [9],45 ± 6.7%
same,maximal % inhibition of viability,UT-SCC-73; [5],80.5 ± 1.5%
same,maximal % inhibition of viability,UT-SCC-73; [6],53.5 ± 17%
same,maximal % inhibition of viability,UT-SCC-73; [7],76.8 ± 1.7%
same,maximal % inhibition of viability,UT-SCC-73; [8],60.7 ± 0.93%
same,maximal % inhibition of viability,UT-SCC-73; [9],66.9 ± 4.2%
same,maximal % inhibition of viability,UT-SCC-24A [3]; [5],79.6 ± 1.9%
same,maximal % inhibition of viability,UT-SCC-24A [3]; [6],37 ± 7.2%
same,maximal % inhibition of viability,UT-SCC-24A [3]; [7],72.5 ± 1.2%
same,maximal % inhibition of viability,UT-SCC-24A [3]; [8],35.6 ± 4.6%
same,maximal % inhibition of viability,UT-SCC-24A [3]; [9],68.3 ± 1.5%
same,drug sensitivity score,UT-SCC-106A [4]; [5],11.8 ± 0.81 DSS
same,drug sensitivity score,UT-SCC-106A [4]; [6],0.567 ± 0.9 DSS
same,drug sensitivity score,UT-SCC-106A [4]; [7],12.8 ± 2.5 DSS
same,drug sensitivity score,UT-SCC-106A [4]; [8],1.67 ± 0.47 DSS
same,drug sensitivity score,UT-SCC-106A [4]; [9],11.7 ± 0.51 DSS
same,drug sensitivity score,UT-SCC-14; [5],6 ± 4.4 DSS
same,drug sensitivity score,UT-SCC-14; [6],4.73 ± 3.5 DSS
same,drug sensitivity score,UT-SCC-14; [7],5.1 ± 3.6 DSS
same,drug sensitivity score,UT-SCC-14; [8],4.27 ± 4.4 DSS
same,drug sensitivity score,UT-SCC-14; [9],2.27 ± 2 DSS
same,drug sensitivity score,UT-SCC-24B; [5],6.43 ± 1 DSS
same,drug sensitivity score,UT-SCC-24B; [6],6.03 ± 2.4 DSS
same,drug sensitivity score,UT-SCC-24B; [7],5.6 ± 0.53 DSS
same,drug sensitivity score,UT-SCC-24B; [8],2.7 ± 0.61 DSS
